Here are results for two molecules from PMC6017585, “Molecular Basis for Converting (2S)-Methylsuccinyl-CoA Dehydrogenase into an Oxidase” (Molecules : A Journal of Synthetic Chemistry and Natural …, 2017).

The target in test [1] is T1, (2S)-methylsuccinyl-CoA dehydrogenase (Mcd) (Cereibacter sphaeroides, UniProt D3JV03, W315F/T317G/E377N). Conditions: dioxygen as electron acceptor, substrate made in situ from ethylmalonyl-CoA, pH 7.8, 30 °C.
Test [2] deals with T2, (2S)-methylsuccinyl-CoA dehydrogenase (Mcd) (Cereibacter sphaeroides, UniProt D3JV03). Conditions: ETF as electron acceptor (55 µM), pH 7.8, 30 °C.
T2 sequence (D3JV03 whole entry): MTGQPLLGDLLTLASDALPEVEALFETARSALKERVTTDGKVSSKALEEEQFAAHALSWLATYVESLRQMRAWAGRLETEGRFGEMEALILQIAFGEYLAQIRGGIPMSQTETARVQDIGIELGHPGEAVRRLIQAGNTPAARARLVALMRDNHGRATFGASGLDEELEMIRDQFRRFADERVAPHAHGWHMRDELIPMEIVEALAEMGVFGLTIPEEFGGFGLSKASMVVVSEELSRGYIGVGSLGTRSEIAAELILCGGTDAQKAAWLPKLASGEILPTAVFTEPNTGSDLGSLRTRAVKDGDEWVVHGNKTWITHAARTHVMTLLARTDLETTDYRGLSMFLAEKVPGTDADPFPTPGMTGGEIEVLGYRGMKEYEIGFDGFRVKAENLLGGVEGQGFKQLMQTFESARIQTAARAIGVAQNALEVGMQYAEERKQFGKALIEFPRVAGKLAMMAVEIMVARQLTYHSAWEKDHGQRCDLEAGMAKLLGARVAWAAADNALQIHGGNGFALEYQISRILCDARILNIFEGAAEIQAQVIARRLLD
Test [3] concerns the target (2S)-methylsuccinyl-CoA dehydrogenase (Mcd) (Cereibacter sphaeroides, UniProt D3JV03, T317G). Conditions: dioxygen as electron acceptor, substrate made in situ from ethylmalonyl-CoA, pH 7.8, 30 °C.
The target of test [4] is T3, ETF (electron transfer flavoprotein) (Cereibacter sphaeroides, UniProt Q9AQC3+Q9AQC4).
T3 construct: gene etfA; plasmid pTE392 (pCDFDuet-1), alpha subunit N-terminal His6-tag, E. coli BL21 (DE3), heterodimer
T3 sequence (Q9AQC4 entry or part of it): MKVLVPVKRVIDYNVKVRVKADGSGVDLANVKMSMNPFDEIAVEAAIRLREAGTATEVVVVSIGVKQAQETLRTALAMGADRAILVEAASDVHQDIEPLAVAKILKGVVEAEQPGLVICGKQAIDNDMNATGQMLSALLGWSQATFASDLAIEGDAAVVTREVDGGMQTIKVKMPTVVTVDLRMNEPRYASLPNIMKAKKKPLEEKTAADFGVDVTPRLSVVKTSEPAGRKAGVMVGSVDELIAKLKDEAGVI
T3 sequence (Q9AQC3 entry or part of it): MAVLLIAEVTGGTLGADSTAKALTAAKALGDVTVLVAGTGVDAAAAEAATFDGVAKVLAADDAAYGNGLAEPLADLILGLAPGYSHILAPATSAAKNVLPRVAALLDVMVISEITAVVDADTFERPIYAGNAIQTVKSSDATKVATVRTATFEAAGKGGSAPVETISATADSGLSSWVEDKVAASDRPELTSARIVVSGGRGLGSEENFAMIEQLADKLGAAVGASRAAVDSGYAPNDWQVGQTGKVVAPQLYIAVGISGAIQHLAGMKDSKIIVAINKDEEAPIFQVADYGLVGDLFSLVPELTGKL
Description: absorbance of ETF-bound FAD at […] nm. Type of test: binding. The note with it: 55 µM ETF reduced by 0.1 µM Mcd, pH 7.8, 30 °C.

The target of test [5] is T2, (2S)-methylsuccinyl-CoA dehydrogenase (Mcd). The note with it: holoenzyme, pH 7.7, 25 °C.
The target in test [6] is T1, (2S)-methylsuccinyl-CoA dehydrogenase (Mcd). The note with it: FAD-reconstituted enzyme, 12 µM (2S)-methylsuccinyl-CoA, pH 7.5.

SMILES strings stand for the structures.

T1 sequence (D3JV03 whole entry W315F/T317G/E377N): as the sequence (D3JV03 whole entry) above, with W315F, T317G, E377N counted along it
Sequence of (2S)-methylsuccinyl-CoA dehydrogenase (Mcd) (Cereibacter sphaeroides, UniProt D3JV03, T317G) (D3JV03 whole entry T317G): as the sequence (D3JV03 whole entry) above, with T317G counted along it

Take `C[C@@H](CC(=O)O)C(=O)SCCNC(=O)CCNC(=O)[C@H](O)C(C)(C)COP(=O)(O)OP(=O)(O)OC[C@H]1O[C@@H](n2cnc3c(N)ncnc32)[C@H](O)[C@@H]1OP(=O)(O)O` (mixture of isomers) [(2S)-methylsuccinyl-CoA]: the “LC mesaconyl-CoA formation; FAD absorbance at 440 nm” value in test [1] and in test [3] was “The re-oxidation of the two enzymes was accompanied by product (mesaconyl-CoA) formation” each time. Further, the “LC-MS mesaconyl-CoA formation; FAD / ETF absorbance at 440 nm” value in test [2] was “Mcd showed a fast electron transfer from the CTC to ETF”.
With `Cc1cc2nc3c(=O)[nH]c(=O)nc-3n(C[C@H](O)[C@H](O)[C@H](O)COP(=O)(O)OP(=O)(O)OC[C@H]3O[C@@H](n4cnc5c(N)ncnc54)[C@H](O)[C@@H]3O)c2cc1C` [FAD], the “absorbance of ETF-bound FAD at 440 nm” value in test [4] is listed as “allowed for the direct observation of ETF-bound FAD”. The “co-purification; visible absorbance of bound flavin at 440 nm” value in test [5] is given as “Concentration of Mcd, which eluted with bound FAD cofactor”. Also, the “50 kDa ultrafiltration of FAD; flow-through spectrum” value in test [6] is given as “FAD does not dissociate from the enzyme during catalysis”.
